In patent US20250353819A1, “ARYL HYDANTOIN COMPOUNDS AND METHODS OF USE” (priority 2022, published 2025):
pIC50: −log10 of the molar value. “And” between values parts separate entries of the source, which are not always exact repeats. Equal values may be shown once. Read-outs that look alike come from different tables or passages of the source.

Experiments:
[1] = Pharmacokinetics in male Sprague Dawley rats; assay type: in vivo, rat; details: for Plasma Concentration: oral 1 mg/kg
Procedure: IV and oral formulations were prepared using the same method. On the day of dosing the solid compound was dissolved in DMSO prior to addition of a saline solution (0.9% w/v). The samples were then mixed using vortexing producing colourless solutions. The IV formulation was filtered through a 0.22 μm syringe filter prior to dosing and the oral formulation was dosed without filtration.
Samples of arterial blood were collected up to 168 h post-dose. Urine samples were not collected as animals were housed in bedded cages. Arterial blood was collected directly into borosilicate vials (at 4° C.) containing heparin as anticoagulant. Once collected, blood samples were centrifuged, supernatant plasma was removed and stored frozen (−80° C.) until analysis by LC-MS. A summary of the bioanalytical method and assay validation details is included in Tables 14 and 15.
Plasma concentration versus time data were analysed using non-compartmental methods (PKSolver Version 2.0). Standard calculations for each pharmacokinetic parameter are listed below.

[2] = Partition coefficient (Log D) by gradient HPLC; assay type: physicochemical; details: pH 7.4, chromatographic estimate; read-out: gLogD7.4
Description: Partition Coefficient. Partition coefficient values (Log D) of the test compounds were estimated by correlation of their chromatographic retention properties against the characteristics of a series of standard compounds with known partition coefficient values using gradient HPLC (modification of a method reported by Lombardo et al., 2001).

CYP 2C9 = CYP 2C9 (Homo sapiens (Human), UniProt P11712); assay: CYP inhibition in human liver microsomes, 2C9
CYP 2C9, sequence (P11712 whole entry): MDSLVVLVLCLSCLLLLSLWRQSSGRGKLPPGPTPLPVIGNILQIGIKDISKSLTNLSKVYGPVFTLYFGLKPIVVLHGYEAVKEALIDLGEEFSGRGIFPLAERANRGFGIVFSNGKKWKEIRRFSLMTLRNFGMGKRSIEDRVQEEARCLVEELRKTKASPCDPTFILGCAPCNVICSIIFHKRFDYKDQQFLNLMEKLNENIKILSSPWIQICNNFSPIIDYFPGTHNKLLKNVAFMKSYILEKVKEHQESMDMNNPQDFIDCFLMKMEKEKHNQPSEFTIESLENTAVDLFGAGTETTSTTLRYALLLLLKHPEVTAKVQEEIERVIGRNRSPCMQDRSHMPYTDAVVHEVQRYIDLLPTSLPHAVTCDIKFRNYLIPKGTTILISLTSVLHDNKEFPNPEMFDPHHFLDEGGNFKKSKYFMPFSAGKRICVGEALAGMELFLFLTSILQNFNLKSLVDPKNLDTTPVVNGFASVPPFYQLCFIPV

[3] = Stability in mouse cryopreserved hepatocytes; assay type: in vitro ADME
CYP 1A2 = CYP 1A2 (Homo sapiens (Human), UniProt P05177); assay: CYP inhibition in human liver microsomes, 1A2; assay type: in vitro ADME
CYP 1A2, sequence (P05177 whole entry): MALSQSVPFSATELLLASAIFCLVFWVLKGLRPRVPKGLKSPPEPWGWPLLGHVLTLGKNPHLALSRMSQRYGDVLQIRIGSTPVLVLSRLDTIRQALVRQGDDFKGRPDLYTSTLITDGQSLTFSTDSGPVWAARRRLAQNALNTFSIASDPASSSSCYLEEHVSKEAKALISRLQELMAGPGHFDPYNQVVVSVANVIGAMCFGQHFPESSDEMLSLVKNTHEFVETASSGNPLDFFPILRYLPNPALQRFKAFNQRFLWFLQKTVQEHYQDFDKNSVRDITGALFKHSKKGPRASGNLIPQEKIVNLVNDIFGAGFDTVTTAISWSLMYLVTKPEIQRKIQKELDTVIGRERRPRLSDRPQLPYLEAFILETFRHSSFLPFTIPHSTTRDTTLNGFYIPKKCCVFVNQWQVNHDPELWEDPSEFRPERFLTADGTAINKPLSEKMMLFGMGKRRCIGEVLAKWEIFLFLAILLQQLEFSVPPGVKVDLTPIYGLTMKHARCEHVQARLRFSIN

LAPC4 cells = assay: Androgen-dependent cell-based assay (DHT, LAPC4); details: Homo sapiens; DHT-induced, androgen-dependent LAPC4 prostate cancer cell line; read-out: LAPC4 IC50
Procedure: Androgen-Dependent Cell-based Assay. As described by Jones and Diamond (2008), LAPC4 cells were cultured in phenol red free RPMI 1640 media supplemented with antibiotics and 10% FBS. […] […] Mean-effect plots (log[compound] vs. log[fractional effect]) were generated to determine the IC50 values for each test compound or combinations of test compounds at constant ratios.

[4] = Whole blood-to-plasma ratio, rat; assay type: in vitro ADME
Procedure: As part of the assessment of the IV pharmacokinetics, an additional blood sample was collected from each rat at 1 h post dose for the purposes of determining the whole blood-to-plasma (B/P) ratio. Arterial blood was collected into tubes containing heparin. The haematocrit was determined via centrifugation (13000×g for 4 min using a Clemets® Microhematocrit centrifuge and Safecap® Plain Self-sealing Mylar Wrapped capillary tubes), and values ranged from 41% to 42%. Each blood aliquot ([…]) was collected and matrix matched with an equivalent volume of blank plasma. The remainder of the blood sample was centrifuged and […] plasma aliquot was collected and matrix matched with an equivalent volume of blank blood. Samples were frozen on dry ice and stored at −80° C. until analysis by LC-MS.

[5] = Whole blood-to-plasma ratio, mouse
[6] = Mouse exposure / pharmacokinetic studies; assay type: in vivo, mice
CYP 2D6 = CYP 2D6 (Homo sapiens (Human), UniProt P10635); assay: CYP inhibition in human liver microsomes, 2D6
CYP 2D6, sequence (P10635 whole entry): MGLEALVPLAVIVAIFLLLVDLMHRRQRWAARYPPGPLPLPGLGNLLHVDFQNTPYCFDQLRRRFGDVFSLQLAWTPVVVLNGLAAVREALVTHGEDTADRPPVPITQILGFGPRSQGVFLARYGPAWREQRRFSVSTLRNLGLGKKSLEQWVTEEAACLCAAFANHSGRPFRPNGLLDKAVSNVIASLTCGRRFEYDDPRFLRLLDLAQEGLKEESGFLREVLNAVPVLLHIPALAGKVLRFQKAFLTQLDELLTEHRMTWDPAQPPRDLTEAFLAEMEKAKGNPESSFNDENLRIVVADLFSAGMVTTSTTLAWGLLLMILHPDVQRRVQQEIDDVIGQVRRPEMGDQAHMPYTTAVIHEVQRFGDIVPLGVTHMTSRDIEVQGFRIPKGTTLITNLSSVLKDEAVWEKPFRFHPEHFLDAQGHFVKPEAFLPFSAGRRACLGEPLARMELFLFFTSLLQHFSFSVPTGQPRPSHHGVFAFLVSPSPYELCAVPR

[7] = rats, IV 1 mg/kg, individual rats
[8] = rats, PO 1 mg/kg, individual rats

CC1(C)NC(=O)N(c2ccc(F)c(C(C)(F)F)c2)C1=O [Compound IC, 3-(3-(1,1-difluoroethyl)-4-fluorophenyl)-5,5-dimethylimidazolidine-2,4-dione]
Plasma Concentration ([1]; 2.00 h, individual rats): 612 ng/mL and 506 ng/mL and 427 ng/mL | Plasma Concentration ([1]; 2.00 h, mean): 515 ng/mL | Plasma Concentration ([1]; 4.00 h, individual rats): 545 ng/mL and 477 ng/mL and 474 ng/mL | Plasma Concentration ([1]; 4.00 h, mean): 499 ng/mL | Plasma Concentration ([1]; 7.00 h, individual rats): 612 ng/mL and 559 ng/mL and 455 ng/mL | Plasma Concentration ([1]; 7.00 h, mean): 542 ng/mL | Plasma Concentration ([1]; 24.00 h, individual rats): 365 ng/mL and 309 ng/mL and 390 ng/mL | Plasma Concentration ([1]; 24.00 h, mean): 355 ng/mL | Plasma Concentration ([1]; 36.00 h, individual rats): 294 ng/mL and 183 ng/mL and 254 ng/mL | Plasma Concentration ([1]; 36.00 h, mean): 243 ng/mL | Plasma Concentration ([1]; 48.00 h, individual rats): 188 ng/mL and 94 ng/mL and 170 ng/mL | Plasma Concentration ([1]; 48.00 h, mean): 151 ng/mL | Plasma Concentration ([1]; 72.00 h, individual rats): 82.4 ng/mL and 58.1 ng/mL and 31.5 ng/mL | Plasma Concentration ([1]; 72.00 h, mean): 57 ng/mL | Plasma Concentration ([1]; 96.00 h, individual rats): 32.0 ng/mL and 5.1 ng/mL and 28.5 ng/mL | Plasma Concentration ([1]; 96.00 h, mean): 21.8 ng/mL | Plasma Concentration ([1]; 144.00 h, individual rats): 2.9 ng/mL and 4.4 ng/mL | Plasma Concentration ([1]; 144.00 h, mean): 3.7 ng/mL | adverse reactions or compound-related side effects ([1]; rats, 7-day sampling period after IV or oral 1 mg/kg): no adverse reactions or compound-related side effects | Apparent t1/2 [1, 7]: 14 h | Blood CL [1, 7]: 0.589 mL/min/kg and 0.808 mL/min/kg | Blood Vss [1, 7]: 0.991 L/kg and 1.19 L/kg | Plasma AUCIV [1, 7]: 23.6 µg·h/mL and 17.2 µg·h/mL | Plasma CL [1, 7]: 0.707 mL/min/kg and 0.970 mL/min/kg | Plasma Vss [1, 7]: 1.19 L/kg and 1.43 L/kg | Apparent t1/2 ([1]; rats, IV 1 mg/kg, mean (n = 3)): 15 h | Plasma AUCIV ([1]; rats, IV 1 mg/kg, mean (n = 3)): 20.6 µg·h/mL | time for which measurable plasma concentrations were observed ([1]; rats, IV and oral 1 mg/kg): up to 6 days | Apparent t1/2 [1, 8]: 13 h and 19 h | BA [1, 8]: 113% and 85.5% and 99.2% | Plasma AUCoral [1, 8]: 17.6 µg·h/mL | Plasma Cmax [1, 8]: 559 ng/mL and 543 ng/mL | Tmax [1, 8]: 1.0 h and 7.0 h and 12 h | Apparent t1/2 ([1]; rats, PO 1 mg/kg, mean (n = 3)): 16 h | Plasma Cmax ([1]; rats, PO 1 mg/kg, mean (n = 3)): 572 ng/mL | chromatographic logD [2]: 2.6 | pIC50 (CYP 2C9): < 4.70 | CLint [3]: <1.8 μL/min/10^6 | pIC50 (CYP 1A2): < 4.70 | pIC50 (LAPC4 cells): < 4.00 | B:P [4]: 1.2 | B:P [5]: 0.95 | clearance ([6]; male, Swiss outbred, mouse, in vivo, iv, 1 mg/kg, mice, IV, mean dose 1.0 mg/kg, read-out: Plasma CL): 1.96 mL/min/kg | AUC(0-t) ([6]; male, Swiss outbred, mouse, in vivo, 100 mg/kg PO in mice, read-out: AUC0-last): 1560 µg·h/mL | Cmax ([6]; male, Swiss outbred, mouse, in vivo, 100 mg/kg PO in mice, read-out: Cmax): 40000 ng/mL | AUC(0-t) ([6]; male, Swiss outbred, mouse, in vivo, mice, IV, mean dose 1.0 mg/kg, read-out: Plasma AUC0-48 h): 8.48 µg·h/mL | AUC(0-inf) ([6]; male, Swiss outbred, mouse, in vivo, mice, IV, mean dose 1.0 mg/kg, read-out: Plasma AUC0-inf): 8.52 µg·h/mL | half-life ([6]; male, Swiss outbred, mouse, plasma, mice, IV, mean dose 1.0 mg/kg, read-out: Apparent t1/2 (converted)): 8.9 h | PlasmaVSS ([6]; mice, IV, mean dose 1.0 mg/kg): 1.64 L/kg | pIC50 (CYP 2D6): < 4.70
